Here are results for 14 compounds from ChEMBL document CHEMBL4680151, “Proton pump inhibitors selectively suppress MLL rearranged leukemia cells via disrupting MLL1-WDR5 protein-protein interaction” (Eur J Med Chem, 2020).

One may read the IC50 as the concentration that inhibits the measured activity by half. Broadly, the inhibition is the relative decrease from the control value, in per cent. The GI50 is the concentration at which growth is held to half of that of the control. A lower GI50 goes with more potent growth inhibition.

Series [1] deals with Histone-lysine N-methyltransferase 2A/WDR5 (Homo sapiens, UniProt P61964). The series can be described thus: Inhibition of MLL1-WDR5 interaction […] assessed as reduction in MLL1 binding to WDR5 WIN site by 5-FAM probe based fluorescence polarization assay. (In general: In fluorescence polarisation assays a small probe gives low polarisation when free and higher when bound to something large.)

Series [2] has as its target T1, Histone-lysine N-methyltransferase 2A/WDR5 (Homo sapiens) (UniProt P61964+Q03164). The series can be described thus: Inhibition of MLL1-WDR5 interaction in human MV4-11 cells assessed as downregulation of Meis1 gene expression at 5 uM incubated for 6 days by qRT-PCR analysis. It is filed as cell-based. Particulars: time 6.0 day. For orientation: In qPCR the cycle at which signal appears reflects the starting amount.

In series [3] the target is T1, Histone-lysine N-methyltransferase 2A/WDR5 (Homo sapiens). The series can be described thus: Inhibition of MLL1-WDR5 interaction in human MV4-11 cells assessed as reduction in H3K4me2 expression at 5 uM incubated for 6 days by Western blot analysis. The conditions noted are these: time 6.0 day. Type of series: cell-based. For orientation: In western blotting, separated proteins are transferred to a membrane and probed.

The target is the same in series [4]. The series can be described thus: Inhibition of MLL1-WDR5 interaction in human MV4-11 cells assessed as downregulation of Hoxa9 gene expression at 5 uM incubated for 6 days by qRT-PCR analysis. Type of series: cell-based. Particulars: time 6.0 day.
The target is the same in series [5]. The series can be described thus: Inhibition of MLL1-WDR5 interaction in human MV4-11 cells assessed as reduction in H3K4me1 expression at 5 uM incubated for 6 days by Western blot analysis. The conditions noted are these: time 6.0 day. Type of series: cell-based.
The nature of series [6]: Cytotoxicity against human L02 cells. Type of series: cell-based.
A further series deals with K562. The series can be described thus: Antiproliferative activity against human K562 cells harboring MLL1. Type of series: functional.
The subject of another series is MOLM-13. The series can be described thus: Antiproliferative activity against human MOLM-13 cells harboring MLL1-AF9. It is filed as functional.
A short description of series [7]: Cytotoxicity against HUVEC cells. Type of series: cell-based. Particulars: human.
Series [8] relates to MV4-11. The series can be described thus: Antiproliferative activity against human MV4-11 cells harboring MLL1-AF4. It is filed as functional.
Series [9] relates to MV4-11. The series can be described thus: Induction of apoptosis in human MV4-11 cells harboring MLL1-AF4 assessed as necrotic cells at 25 uM incubated for 72 hrs by annexin V-FITC and propidium iodide staining based assay (reference value: 0.05 %). Type of series: functional.
The test system of series [10] is MV4-11. The series can be described thus: Induction of apoptosis in human MV4-11 cells harboring MLL1-AF4 assessed as necrotic cells at 10 uM incubated for 72 hrs by annexin V-FITC and propidium iodide staining based assay (reference value: 0.05 %). It is filed as functional.
Series [11] addresses T1, Histone-lysine N-methyltransferase 2A/WDR5 (Homo sapiens). The series can be described thus: Inhibition of MLL1-WDR5 interaction in human MV4-11 cells assessed as downregulation of Hoxa9 gene expression at 10 uM incubated for 6 days by qRT-PCR analysis relative to control. Type of series: cell-based. Particulars: time 6.0 day.
Series [12] concerns MV4-11. The series can be described thus: Induction of apoptosis in human MV4-11 cells harboring MLL1-AF4 assessed as late apoptotic cells at 5 uM incubated for 72 hrs by annexin V-FITC and propidium iodide staining based assay (reference value: 1.85 %). Type of series: functional.
In series [13] the target is T1, Histone-lysine N-methyltransferase 2A/WDR5 (Homo sapiens). The series can be described thus: Inhibition of MLL1-WDR5 interaction in human MV4-11 cells assessed as reduction in H3K4me2 expression incubated for 6 days by Western blot analysis. Particulars: dose 0.1-20 µM, time 6.0 day. It is filed as cell-based.
Series [14] has as its system MV4-11. The series can be described thus: Induction of apoptosis in human MV4-11 cells harboring MLL1-AF4 assessed as viable cells at 10 uM incubated for 72 hrs by annexin V-FITC and propidium iodide staining based assay (reference value: 93.75 %). It is filed as functional. Particulars: read-out: Activity.
For series [15], the system named is MV4-11. The series can be described thus: Induction of apoptosis in human MV4-11 cells harboring MLL1-AF4 assessed as early apoptotic cells at 5 uM incubated for 72 hrs by annexin V-FITC and propidium iodide staining based assay (reference value: 4.35 %). It is filed as functional.
Series [16] addresses T1, Histone-lysine N-methyltransferase 2A/WDR5 (Homo sapiens). The series can be described thus: Inhibition of MLL1-WDR5 interaction in human MV4-11 cells assessed as reduction in H3K4me1 expression incubated for 6 days by Western blot analysis. It is filed as cell-based. The conditions noted are these: dose 0.1-20 µM, time 6.0 day.
Series [17] concerns MV4-11. The series can be described thus: Induction of apoptosis in human MV4-11 cells harboring MLL1-AF4 assessed as late apoptotic cells at 10 uM incubated for 72 hrs by annexin V-FITC and propidium iodide staining based assay (reference value: 1.85 %). It is filed as functional.
Series [18] has as its system MV4-11. The series can be described thus: Induction of apoptosis in human MV4-11 cells harboring MLL1-AF4 assessed as early apoptotic cells at 10 uM incubated for 72 hrs by annexin V-FITC and propidium iodide staining based assay (reference value: 4.35 %). It is filed as functional.
In series [19] the target is T1, Histone-lysine N-methyltransferase 2A/WDR5 (Homo sapiens). The series can be described thus: Inhibition of MLL1-WDR5 interaction in human MV4-11 cells assessed as downregulation of Hoxa9 gene expression incubated for 6 days by qRT-PCR analysis. It is filed as cell-based. The conditions noted are these: dose 1-20 µM, time 6.0 day.
For series [20] the target is unchanged. The series can be described thus: Inhibition of MLL1-WDR5 interaction in human MV4-11 cells assessed as downregulation of Meis1 gene expression at 10 uM incubated for 6 days by qRT-PCR analysis relative to control. Type of series: cell-based. Particulars: time 6.0 day.
The test system of series [21] is MV4-11. The series can be described thus: Induction of apoptosis in human MV4-11 cells harboring MLL1-AF4 assessed as viable cells at 25 uM incubated for 72 hrs by annexin V-FITC and propidium iodide staining based assay (reference value: 93.75 %). Particulars: read-out: Activity. Type of series: functional.
The test system of series [22] is MV4-11. The series can be described thus: Induction of apoptosis in human MV4-11 cells harboring MLL1-AF4 assessed as viable cells at 5 uM incubated for 72 hrs by annexin V-FITC and propidium iodide staining based assay (reference value: 93.75 %). Type of series: functional. The conditions noted are these: read-out: Activity.
Series [23] has as its system MV4-11. The series can be described thus: Induction of apoptosis in human MV4-11 cells harboring MLL1-AF4 incubated for 72 hrs by annexin V-FITC and propidium iodide staining based assay. Particulars: dose 5-25 µM. It is filed as functional, cell-based.
Series [24] has as its system MV4-11. The series can be described thus: Induction of apoptosis in human MV4-11 cells harboring MLL1-AF4 assessed as necrotic cells at 5 uM incubated for 72 hrs by annexin V-FITC and propidium iodide staining based assay (reference value: 0.05 %). Type of series: functional.
The test system of series [25] is MV4-11. The series can be described thus: Induction of apoptosis in human MV4-11 cells harboring MLL1-AF4 assessed as late apoptotic cells at 25 uM incubated for 72 hrs by annexin V-FITC and propidium iodide staining based assay (reference value: 1.85 %). It is filed as functional.
Series [26] addresses T1, Histone-lysine N-methyltransferase 2A/WDR5 (Homo sapiens). The series can be described thus: Inhibition of MLL1-WDR5 interaction in human MV4-11 cells assessed as downregulation of Meis1 gene expression incubated for 6 days by qRT-PCR analysis. Type of series: cell-based. The conditions noted are these: dose 1-20 µM, time 6.0 day.
The subject of series [27] is MV4-11. The series can be described thus: Induction of apoptosis in human MV4-11 cells harboring MLL1-AF4 assessed as early apoptotic cells at 25 uM incubated for 72 hrs by annexin V-FITC and propidium iodide staining based assay (reference value: 4.35 %). It is filed as functional.

Calls of active or inactive are those of the source. The calls are words filed in the database; no cut-off is given here.

Take `COc1c(C)cnc(C[S+]([O-])c2nc3ccccc3[nH]2)c1C` (stereo unspecified): the IC50 in [1] came to 1.1 µM.

With `Cc1ccccc1C[S+]([O-])c1nc2ccccc2[nH]1` (stereo unspecified), in series [1], the half-inhibitory concentration (IC50) is greater than 100 µM.

Take `COCCCOc1ccnc(C[S+]([O-])c2nc3cc(OC(F)F)ccc3[nH]2)c1C` (stereo unspecified): the IC50 in [1] turned out to be 1.7 µM.

Consider `COc1c(C)cnc(C[S+]([O-])c2nc3ccccc3s2)c1C` (stereo unspecified), for which the half-inhibitory concentration (IC50) in series [1] was greater than 100 µM.

Turning to `COCCCOc1ccnc(CS(=O)(=O)c2nc3cc(OC(F)F)ccc3[nH]2)c1`, the half-inhibitory concentration (IC50) in series [1] is greater than 100 µM.

Regarding `Cc1cccnc1C[S+]([O-])c1nc2ccccc2[nH]1` (stereo unspecified), in series [1], the 50% inhibitory concentration (IC50) is greater than 100 µM.

Take `COc1c(C)cnc(C[S+]([O-])c2nc3ccccc3o2)c1C` (stereo unspecified): in series [1], the concentration for half-maximal inhibition (IC50) was greater than 100 µM.

Turning to `COc1c(C)cnc(CSc2nc3ccccc3[nH]2)c1C`, the 50% inhibitory concentration (IC50) in [1] is greater than 100 µM.

For `Cc1c(F)c(N)cc(C(=O)Nc2cc(-c3ccc(N)cc3)ccc2N2CCN(C)CC2)c1Cl`, the inhibition result in series [2], in series [3], in [4] and in series [5] was “Active” in each case.

As for `Cc1c(OCC(F)(F)F)ccnc1C[S@@+]([O-])c1nc2ccccc2[nH]1` [DEXLANSOPRAZOLE], the GI50 is greater than 100 µM in series [6]; greater than 100 µM in the series on K562; 27.2 µM in the series on MOLM-13; greater than 100 µM in series [7]; 25.1 µM in the series on MV4-11 [8]. Further, the IC50 in series [1] turned out to be 5.7 µM.

Take `COc1ccc2nc([S@@+]([O-])Cc3ncc(C)c(OC)c3C)[nH]c2c1` [ESOMEPRAZOLE]: the 50% growth inhibitory concentration (GI50) in series [6] is greater than 100 µM; in the series with K562, greater than 100 µM; in the series with MOLM-13 it was 32 µM; in series [7], greater than 100 µM; in the series with MV4-11 [8] it was 47.6 µM. For the same compound, the IC50 in series [1] turned out to be 1.8 µM.

On to `Cc1c(OCC(F)(F)F)ccnc1C[S+]([O-])c1nc2ccccc2[nH]1` (stereo unspecified) [LANSOPRAZOLE], for which the GI50 in series [6] was greater than 100 µM; in the series with K562 it was greater than 100 µM; in the series on MOLM-13, 30.1 µM; in series [7] it was greater than 100 µM; with MV4-11 [8], 21.1 µM. The IC50 in [1] came out at 5.9 µM.

On to `COc1ccc2[nH]c([S+]([O-])Cc3ncc(C)c(OC)c3C)nc2c1` (stereo unspecified) [OMEPRAZOLE], for which the GI50 was greater than 100 µM in [6]; greater than 100 µM in the series on K562; 34.1 µM with MOLM-13; greater than 100 µM in series [7]; 37.3 µM with MV4-11 [8]. For the same compound, in series [1], the IC50 amounted to 1.7 µM.

As to `COCCCOc1ccnc(C[S+]([O-])c2nc3ccccc3[nH]2)c1C` (stereo unspecified) [RABEPRAZOLE], the Activity with MV4-11 [9] came to 0.8%; in the series with MV4-11 [10], 0.3%; in the series on MV4-11 [12], 5.65%; in the series with MV4-11 [15] it was 7.75%; with MV4-11 [17] it was 8.7%; with MV4-11 [18], 4.75%. Further, the Activity entry with MV4-11 [23] was “Dose-dependent effect”; with MV4-11 [24], 0.2%; in the series with MV4-11 [25] it was 16.5%; in the series on MV4-11 [27] it was 6.4%. Besides, the 50% growth inhibitory concentration (GI50) is greater than 100 µM in series [6]; greater than 100 µM in the series with K562; 17.5 µM in the series on MOLM-13; greater than 100 µM in series [7]; 14.1 µM in the series with MV4-11 [8]. In addition, the inhibition in series [11] was 50%; in [13], “Dose-dependent effect”; in series [16], “Dose-dependent effect”; in series [19], “Dose-dependent effect”; in [20], 50%; in series [26] it was “Dose-dependent effect”. The viability at 10 µM in the series with MV4-11 [14] was determined as 86.2%. Also, in series [1], the IC50 amounted to 0.49 µM. Besides, the viability at 25 µM in the series with MV4-11 [21] was determined as 76.3%. For the same compound, in the series with MV4-11 [22], the viability at 5 µM stood at 86.4%.
